Assays:
[1] = biological target: human TYK2 (JH2domain-pseudokinase) (Homo sapiens (Human), UniProt P29597); experiment: TYK2 JH2 Domain Binding Assay (KINOMEscan)
Summary of the method: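 Kds, run in duplicate, came from Hill fits (slope fixed at −1) of an 11-point 3-fold dilution series starting at 30,000 nM. Bead-retained TYK2 JH2 (aa G556–D888)–NFkB DBD fusion, DNA-tagged and expressed in HEK293 cells, was read by qPCR after 1 h room-temperature binding in 0.9% DMSO.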

JAK2 kinase domain (JH1) = JAK2 kinase domain (JH1) (Homo sapiens (Human), UniProt O60674); experiment: JAK2 Radioactive Kinase Assay; assay type: biochemical; conditions: compound at 10 μM; ATP 10 μM; read-out: JAK2 JH1% Inhibition @ 10 μM
Summary of the method: (§1)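 Each kinase domain is incubated with test compound at 10 μM. Activity is then measured radiometrically and expressed as percent inhibition relative to uninhibited enzyme.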

Tyk2 kinase domain (DH1) = Tyk2 kinase domain (DH1) (Homo sapiens (Human), UniProt P29597); experiment: Tyk2 Radioactive Kinase Assay; assay type: biochemical; conditions: compound at 10 μM; ATP 10 μM; read-out: Tyk2 JH1% Inhibition @ 10 μM
Summary of the method: as §1

Chain of Tyk2 kinase domain (DH1) (P29597 897-1176): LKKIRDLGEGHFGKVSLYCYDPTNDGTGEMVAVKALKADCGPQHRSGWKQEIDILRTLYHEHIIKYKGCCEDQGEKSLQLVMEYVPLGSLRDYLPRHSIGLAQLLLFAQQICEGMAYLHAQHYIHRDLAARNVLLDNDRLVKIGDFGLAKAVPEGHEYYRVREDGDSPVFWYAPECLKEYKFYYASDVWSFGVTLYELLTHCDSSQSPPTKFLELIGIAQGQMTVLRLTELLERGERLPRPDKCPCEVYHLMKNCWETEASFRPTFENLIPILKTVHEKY
Chain of JAK2 kinase domain (JH1) (O60674 849-1124): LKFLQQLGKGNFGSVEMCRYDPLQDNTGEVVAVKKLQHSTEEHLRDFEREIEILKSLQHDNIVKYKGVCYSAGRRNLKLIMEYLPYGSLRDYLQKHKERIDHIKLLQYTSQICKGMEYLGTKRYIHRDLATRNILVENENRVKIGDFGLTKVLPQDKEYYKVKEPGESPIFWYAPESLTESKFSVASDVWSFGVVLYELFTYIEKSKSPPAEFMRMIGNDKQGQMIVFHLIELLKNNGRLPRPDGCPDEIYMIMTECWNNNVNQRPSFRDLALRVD
Chain of human TYK2 (JH2domain-pseudokinase) (P29597 556-888): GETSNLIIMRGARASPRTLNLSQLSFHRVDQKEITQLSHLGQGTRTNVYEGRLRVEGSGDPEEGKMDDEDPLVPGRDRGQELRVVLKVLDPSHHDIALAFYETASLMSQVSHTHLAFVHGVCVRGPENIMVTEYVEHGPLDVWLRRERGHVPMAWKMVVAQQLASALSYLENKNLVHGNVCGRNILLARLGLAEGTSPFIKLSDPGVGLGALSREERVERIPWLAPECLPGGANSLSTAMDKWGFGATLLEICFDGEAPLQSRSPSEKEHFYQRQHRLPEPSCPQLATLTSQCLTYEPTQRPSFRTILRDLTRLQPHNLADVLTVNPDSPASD

| Structure (SMILES) | Kd [1] | inhibition at 10 µM (JAK2 kinase domain (JH1)) | inhibition at 10 µM (Tyk2 kinase domain (DH1)) |
| --- | --- | --- | --- |
| CNc1cc(Nc2cccn(-c3cncc(C)c3)c2=O)nc2c(C(=O)NC3CC3)cnn12 [I-301] | 0.2 to 1 nM | < 50% | < 50% |
| CNc1cc(Nc2cccn(-c3cncc(C)c3)c2=O)nc2c(C(=O)N[C@H]3C[C@H]3F)cnn12 [I-302] | < 0.2 nM | < 50% | < 50% |
| CNc1cc(Nc2cccn([C@H]3CC[C@@H](N4CCOCC4)CC3)c2=O)nc2c(C(=O)N[C@H]3C[C@H]3F)cnn12 [I-304] | < 0.2 nM | < 50% | < 50% |
| CNc1cc(Nc2cccnc2C(C)(C)O)nc2c(C(=O)NC3CC3)cnn12 [I-306] | 1 to 10 nM | < 50% | < 50% |
| CNc1cc(Nc2cccnc2C(C)(C)O)nc2c(C(=O)N[C@H]3C[C@H]3F)cnn12 [I-307] | 0.2 to 1 nM | < 50% | < 50% |
| CNc1cc(Nc2cccn(-c3ccc(CCN4CCOCC4)cc3)c2=O)nc2c(C(=O)N[C@H]3C[C@H]3F)cnn12 [I-308] | < 0.2 nM | < 50% | < 50% |
| CNc1cc(Nc2cccn(C3CCCOC3)c2=O)nc2c(C(=O)NC3CC3)cnn12 (stereo not drawn) [I-313] | < 0.2 nM | < 50% | < 50% |
| CNc1cc(Nc2cc(Cl)cn(-c3ccnc(C)n3)c2=O)nc2c(C(=O)NC3CC3)cnn12 [I-316] | < 0.2 nM | < 50% | < 50% |
| CNc1cc(Nc2cccnc2OC2CC2)nc2c(C(=O)N[C@H]3C[C@H](O)C3)cnn12 [I-320, 5-((2-cyclopropoxypyridin-3-yl)amino)-N-((1r, 3r)-3-hydroxycyclobutyl)-7-(methylamino)pyrazolo[1,5-a]pyrimidine-3-carboxamide] | < 0.2 nM | 50 to 70% | < 50% |
| CNc1cc(Nc2cc(Cl)cn(-c3ncc(C)s3)c2=O)nc2c(C(=O)NC3CC3)cnn12 [I-322] | 0.2 to 1 nM | < 50% | < 50% |
| CNc1cc(Nc2cc(Cl)cn(-c3cnn(C4CC4)c3C)c2=O)nc2c(C(=O)NC3CC3)cnn12 [I-325] | 0.2 to 1 nM | < 50% | < 50% |
| CNc1cc(Nc2cccn(-c3ccnn3C)c2=O)nc2c(C(=O)NC3CC3)cnn12 [I-327] | 0.2 to 1 nM | < 50% | < 50% |
| CNc1cc(Nc2cccn(-c3ccnn3C)c2=O)nc2c(C(=O)NC3CCC3)cnn12 [I-328] | < 0.2 nM | < 50% | < 50% |
| CNc1cc(Nc2cccn(-c3ccnn3C)c2=O)nc2c(C(=O)N[C@H]3C[C@H]3F)cnn12 [I-335] | < 0.2 nM | < 50% | < 50% |
| COc1ncccc1Nc1cc(NC2CC2)n2ncc(C(=O)NC3CC3)c2n1 [I-336, N-cyclopropyl-7-(cyclopropylamino)-5-((2-methoxypyridin-3-yl)amino)pyrazolo[1,5-a]pyrimidine-3-carboxamide] | 0.2 to 1 nM | < 50% | < 50% |
| COc1ncccc1Nc1cc(NC2CC2)n2ncc(C(=O)N[C@@H]3C[C@@H]3F)c2n1 [I-337, 7-(cyclopropylamino)-N-((1R,2S)-2-fluorocyclopropyl)-5-((2-methoxypyridin-3-yl)amino)pyrazolo[1,5-a]pyrimidine-3-carboxamide] | 0.2 to 1 nM | < 50% | < 50% |
| CNc1cc(Nc2cccnc2OC)nc2c(C(=O)NC3CC(F)(F)C3)cnn12 [I-338, N-(3,3-difluorocyclobutyl)-5-((2-methoxypyridin-3-yl)amino)-7-(methylamino)pyrazolo[1,5-a]pyrimidine-3-carboxamide] | < 0.2 nM | < 50% | < 50% |
| CNc1cc(Nc2cccnc2OC2CC2)nc2c(C(=O)NC3CC(F)(F)C3)cnn12 [I-339, 5-((2-cyclopropoxypyridin-3-yl)amino)-N-(3,3-difluorocyclobutyl)-7-(methylamino)pyrazolo[1,5-a]pyrimidine-3-carboxamide] | 0.2 to 1 nM | < 50% | < 50% |
| CNc1cc(Nc2cccn(-c3cc(C)nn3C)c2=O)nc2c(C(=O)NC3CC3)cnn12 [I-340] | 0.2 to 1 nM | < 50% | < 50% |
| CNc1cc(Nc2cccn(-c3cc(C)nn3C)c2=O)nc2c(C(=O)N[C@H]3C[C@H]3F)cnn12 [I-341] | 0.2 to 1 nM | < 50% | < 50% |
| CNc1cc(Nc2cccn(C3CCN(C)CC3)c2=O)nc2c(C(=O)NC3CC3)cnn12 [I-348] | 0.2 to 1 nM | < 50% | < 50% |

— patent publication US10508120B2, “TYK2 inhibitors and uses thereof” (Nimbus Lakshmi, Inc., priority 2017, dated 2019)
